Laboratory results from PubChem BioAssay AID977622 (Broad Institute, 2014).
Inconclusive results are not listed. Active and inactive are the calls of the source.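 Rule for the calls: active = Green signal of the normal strain falls at least twice as much as red signal of the resistant mutant, with overall culture growth loss under a set limit; inconclusive = no clear call, values can overlap the other calls; inactive = the rest.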

Tested on: E. coli WT ribosome GFP fluorescence, mixed culture, 24 h
Test: growth inhibition of wild-type GFP E. coli, dose response, h38 mutant RFP, cherry-pick (AID 977622)
[1] = E. coli mixed culture, 24 h, measured here: total growth OD600

SMILES	AC50	AC50 [1] [µM]
CC(OC(=O)CCc1nc2ccccc2c(=O)[nH]1)C(=O)c1ccc(Br)cc1 (stereo unspecified)	> 100 µM (inactive)	
C[C@@H]1CN([C@H](C)CO)C(=O)CCCn2nncc2CO[C@@H]1CN(C)C(=O)Nc1ccc(C(F)(F)F)cc1	> 100 µM (inactive)	
O=C(Nc1ccc(C(=O)Nc2ccccc2Cl)cc1)c1cccnc1		> 100
COc1ccc(OC2C(=O)N(Cc3ccc4c(c3)OCO4)C2c2sccc2C)cc1 (stereo unspecified)	> 100 µM (inactive)	
Cc1ccc(S(=O)(=O)NC(C)C(=O)NCc2ccc(Cl)cc2)cc1 (stereo unspecified)		> 100
COc1cccc(S(=O)(=O)N2CCCCN3[C@H](C2)[C@H](c2ccc(C#CC(C)C)cc2)[C@@H]3CO)c1	> 100 µM (inactive)	
CN1OC[C@@H]2CN(C(=O)c3ccco3)[C@H](c3ccc(-c4ccc(C#N)cc4)cc3)C[C@@H]21		> 100
Cc1c(Cc2ccccc2)sc(NC(=O)Cc2ccccc2)c1C(N)=O	> 100 µM (inactive)	
CCOC(=O)C(CC)Sc1cc(C)nc2ccc(OC)cc12 (stereo unspecified)		> 100
COc1ccc(C#Cc2ccc([C@@H]3[C@@H](CO)N4CCCCN(C(=O)Nc5ccc(F)cc5)C[C@H]34)cc2)cc1		50.6
CC(=O)OC1N=C(c2ccccc2Cl)c2cc(Br)ccc2NC1=O (stereo unspecified)		> 100
COc1cccc(NC(=O)N(C)C[C@H]2Oc3ncc(C#Cc4cccnc4)cc3C(=O)N([C@H](C)CO)C[C@H]2C)c1		> 100
Cc1cccc(Oc2ccc(NC(=O)c3ccccc3C(=O)O)cc2)c1		> 100
CN(C)C(=O)C1C2NC(=S)N(c3cccc(Cl)c3)C1(C)Oc1ccc(Cl)cc12 (stereo unspecified)	> 100 µM (inactive)	> 100
Cc1ccc2nc(-c3ccc(Cl)cc3)c(Cc3ccccc3C(F)(F)F)n2c1		> 100
CCOc1ccc(N(CC(=O)NC(C(C)C)C(C)C)S(=O)(=O)c2ccc(OC)c(OC)c2)cc1	> 100 µM (inactive)	50.9
Cc1ccc(C(=O)c2coc3cc([N+](=O)[O-])c(O)c([N+](=O)[O-])c23)cc1	> 100 µM (inactive)	21.5
O=C(NCc1ccccc1)c1ccc(-c2cn[nH]c2)c2ccoc12		> 100
CNC(=O)c1ccsc1NC(=O)c1ccc2c(c1)CCCC2	> 100 µM (inactive)	> 100
CC(C)N1CC2(CC(c3ccccc3C(F)(F)F)=NO2)CN1C(=O)c1ccco1 (stereo unspecified)	> 100 µM (inactive)	> 100
COc1ccc(CC(=O)NCc2csc(-c3cccs3)n2)cc1OC		> 100
CCOC(=O)c1sc(Nc2cccc(Cl)c2)nc1C		> 100

SMILES	AC50	AC50 [1] [µM]
Nc1ccc(C(=O)OCCc2ccccc2)cc1	> 100 µM (inactive)	
CCOc1ccc(-c2nc(-c3cccs3)c(CC(=O)O)s2)cc1OC		> 100
CCN(CC)CCN(C(=O)c1ccccc1OC)c1nc2ccc(F)cc2s1	> 100 µM (inactive)	> 100
Cc1cc(C(=O)NCCC2=CCCCC2)ccc1[N+](=O)[O-]	> 100 µM (inactive)	> 100
O=[N+]([O-])c1ccc2nc(-c3ccccc3[N+](=O)[O-])[nH]c2c1	> 100 µM (inactive)	> 100
Cc1cc(C(=O)Nc2cccc3c2O[C@H](CN(C)S(=O)(=O)c2ccc(Cl)cc2)[C@H](C)CN([C@H](C)CO)C3=O)n(C)n1	> 100 µM (inactive)	27.8
Nc1[nH]c(C(=O)c2ccccc2)c(-c2ccc(Cl)cc2)c1C(=O)NCCc1c[nH]c2ccccc12		> 100
Cc1cc(C(N)=O)nn1-c1c(Cl)cc(Cl)cc1Cl		> 100
O=C(Cn1c(CO)nc2ccccc21)NCCc1ccc(F)cc1	> 100 µM (inactive)	
COc1ccccc1Cn1c(=S)[nH]c2ccccc2c1=O	> 100 µM (inactive)	42.1
CN(Cc1ccc([N+](=O)[O-])cc1)c1ccccc1		> 100
CCCC[n+]1ccn(-c2nc3ccccc3nc2[N-]S(=O)(=O)c2cccs2)c1	> 100 µM (inactive)	> 100
Cc1ccc(C)c(N(CC(=O)NC2CCCC2)C(=O)c2oc(C(C)(C)C)cc2C)c1		> 100
Nc1nn(-c2ccccc2)c2ccc([N+](=O)[O-])cc12	> 100 µM (inactive)	
CC(Nc1ncnc2ccccc12)c1ccccc1 (stereo unspecified)	> 100 µM (inactive)	> 100
Nc1ccccc1C#CC(=O)c1ccccc1	> 100 µM (inactive)	
CCCCc1ccc(S(=O)(=O)Nc2ccc(C)c(NS(C)(=O)=O)c2)cc1	> 100 µM (inactive)	51.4
Cc1ccc(C(=O)Nc2ccc(C)c(S(=O)(=O)Nc3ccccc3Cl)c2)s1	> 100 µM (inactive)	43.1
C=CCNc1ccc2c(c1)OC[C@H](CC(C)C)NS2(=O)=O		> 100
COc1ccc(OC2C(=O)N(Cc3ccc4c(c3)OCO4)C2c2cccs2)cc1 (stereo unspecified)	> 100 µM (inactive)	
O=C(NCc1ccc2c(c1)OCO2)C1CCCN1S(=O)(=O)c1ccc(Cl)cc1 (stereo unspecified)	> 100 µM (inactive)	
CC[N+](CC)(CC#Cc1ccccc1)CC#Cc1ccccc1	> 100 µM (inactive)	> 100

SMILES	AC50	AC50 [1] [µM]
Cc1nc(-c2ccc([N+](=O)[O-])cc2)c(-c2ccccc2)o1	> 100 µM (inactive)	> 100
CC(=O)Nc1cccc(OCCCOc2cccc([N+](=O)[O-])c2)c1		> 100
Cn1cc(CN2CCCC(C(=O)Nc3cccc(-c4cc5ccccc5[nH]4)c3)C2)cn1 (stereo unspecified)		> 100
Cn1cnc(CCNC(=O)C[C@H]2CC[C@@H]3[C@H](COC[C@H](O)CN3C(=O)Nc3ccc(Cl)cc3)O2)c1	> 100 µM (inactive)	
COc1ccc(CNC(=O)c2sc3nc4c(c(C(F)(F)F)c3c2N)CCC4)cc1OC		> 100
Cc1ccsc1C(=O)N1CCCC(C(=O)c2cc(F)ccc2F)C1 (stereo unspecified)	> 100 µM (inactive)	> 100
COc1ccc([C@H]2C[C@H](O)C[C@@H](CCn3cc(-c4ccccc4)nn3)O2)cc1		> 100
O=C(NCCc1ccccc1)c1cccc(NC(=O)c2ccccc2)c1	> 100 µM (inactive)	
O=S(=O)(c1ccccc1)N1C[C@H]2[C@@H](c3ccccc31)[C@@H](CO)N2Cc1ccccc1	> 100 µM (inactive)	
O=S1(=O)N[C@H](Cc2ccccc2)COc2cc(N3CCSCC3)ccc21		> 100
COc1cc2nc(Nc3ccc(F)cc3)nc(N)c2cc1OC	> 100 µM (inactive)	
COc1ccc(-c2csc(NC(=O)c3ccoc3C)n2)cc1	> 100 µM (inactive)	> 100
COc1ccc2oc(C(=O)NCc3ccco3)c(C)c2c1	> 100 µM (inactive)	
O=C(c1cc2cc(F)ccc2[nH]1)N1CCN(Cc2ccc3c(c2)OCO3)CC1	> 100 µM (inactive)	20.8
COc1ccc(NC(=O)CN(c2ccccc2OC)S(=O)(=O)c2cccs2)cc1Cl		> 100
Cc1nc(C)c(-c2ccn(S(=O)(=O)c3ccc(Cl)cc3)n2)o1	> 100 µM (inactive)	
O=C(NCCCn1ccnc1)c1sc2cc([N+](=O)[O-])ccc2c1Cl		> 100
Cc1nnc2sc(SCC(=O)Nc3ccc(Br)cc3)nn2c1=O	> 100 µM (inactive)	> 100
CO[C@@H]1CN(C)C(=O)c2cc(NC(=O)C3CCCC3)ccc2OC[C@@H](C)N(C(=O)Nc2ccc(C(F)(F)F)cc2)C[C@H]1C	> 100 µM (inactive)	49.5
S=c1nc(-c2cc(Cl)cc(Cl)c2)[nH][nH]1	> 100 µM (inactive)	
O=C(O)c1ccc(-c2nc(-c3ccccc3)cs2)cc1	> 100 µM (inactive)	
